# According to patent US8952024B2, “Herbicidal pyrimidone derivatives” (E I du Pont de Nemours and Company, priority 2009, dated 2015):
# Key:
# Assay type in all cases: in vivo
# [1] = test system: umbrella sedge (Cyperus difformis); assay: Test B flooded paddy test; conditions: for Plant response rating, Sedge, Umbrella: Flood (flooded paddy test), 13 to 15 days
# Summary of the method: (§1)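 Rice, umbrella sedge, ducksalad and barnyardgrass were grown to the 2-leaf stage, flooded to 3 cm, and compound was applied directly to the paddy water, with that depth kept throughout. After 13 to 15 days in the greenhouse, plants were visually rated against controls on a 0 (no effect) to 100 (complete control) scale.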
# [2] = test system: rice (Oryza sativa); assay: Test B flooded paddy test; conditions: for Plant response rating, Rice: Flood (flooded paddy test), 13 to 15 days
# Summary of the method: as §1
# [3] = test system: ducksalad (Heteranthera limosa); assay: Test B flooded paddy test; conditions: for Plant response rating, Ducksalad: Flood (flooded paddy test), 13 to 15 days
# Summary of the method: as §1
# [4] = test system: barnyardgrass (Echinochloa crus-galli); assay: Test B flooded paddy test; conditions: for Plant response rating, Barnyardgrass: Flood (flooded paddy test), 13 to 15 days
# Summary of the method: as §1
# [5] = test system: bermudagrass (Cynodon dactylon); assay: Test B pre-/postemergence plant response
# Summary of the method: (§2)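 Plants treated either at seeding (loam/sand soil) or postemergence at 2 to 18 cm height, using a surfactant-containing non-phytotoxic solvent formulation. Evaluation was visual after 13 to 15 days, 0 to 100 scale relative to controls.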
# [6] = test system: corn (Zea mays); assay: Test B pre-/postemergence plant response
# Summary of the method: as §2
# [7] = test system: johnsongrass (Sorghum halepense); assay: Test B pre-/postemergence plant response
# Summary of the method: as §2
# [8] = test system: cocklebur (Xanthium strumarium); assay: Test B pre-/postemergence plant response
# Summary of the method: as §2
# [9] = test system: ragweed (common ragweed, Ambrosia elatior); assay: Test B pre-/postemergence plant response
# Summary of the method: as §2
# [10] = test system: pigweed (Amaranthus retroflexus); assay: Test B pre-/postemergence plant response
# Summary of the method: as §2
# [11] = test system: green foxtail (Setaria viridis); assay: Test B pre-/postemergence plant response
# Summary of the method: as §2
# [12] = test system: giant foxtail (Setaria faberii); assay: Test B pre-/postemergence plant response
# Summary of the method: as §2
# [13] = test system: soybean (Glycine max); assay: Test B pre-/postemergence plant response
# Summary of the method: as §2
# [14] = test system: lambsquarters (Chenopodium album); assay: Test B pre-/postemergence plant response
# Summary of the method: as §2
# [15] = test system: kochia (Kochia scoparia); assay: Test B pre-/postemergence plant response
# Summary of the method: as §2
# [16] = test system: wild oat (Avena fatua); assay: Test B pre-/postemergence plant response
# Summary of the method: as §2
# [17] = 250 g ai/ha, flooded paddy test, visual rating on 0 to 100 scale (0 no effect, 100 complete control) after 13 to 15 days
# [18] = 62 g ai/ha, scale of 0 to 100 where 0 is no effect and 100 is complete control
# [19] = 125 g ai/ha, scale 0 to 100, 0 is no effect, 100 is complete control
# [20] = Flood, 31 g ai/ha, scale 0 to 100 (0 no effect, 100 complete control)
# [21] = 16 g ai/ha, Postemergence, 0 to 100 scale
# [22] = 31 g ai/ha, postemergence, scale 0 to 100, 0 is no effect, 100 is complete control
# [23] = 62 g ai/ha, postemergence, 0 is no effect, 100 is complete control, 13 to 15 days
# [24] = Postemergence, 125 g ai/ha, visual rating after 13 to 15 days, scale 0 (no effect) to 100 (complete control)
# [25] = Preemergence, 16 g ai/ha, scale 0 to 100, 0 no effect, 100 complete control
# [26] = Preemergence, 31 g ai/ha, scale 0 to 100 (0 no effect, 100 complete control)
# [27] = Preemergence, 62 g ai/ha, scale 0 to 100, 0 no effect, 100 complete control
# [28] = Preemergence, 125 g ai/ha, scale 0 to 100, 0 no effect, 100 complete control
smiles,measurement,setting,value
O=C1CCCC(O)=C1C(=O)c1cnc(-c2cccc(Br)c2)n(-c2ccccc2)c1=O [Compound 69],"Plant response rating, Flood, Sedge, Umbrella",[1]; [17],40
same,"Plant response rating, Sedge, Umbrella",[1]; [18],0
same,"Plant response rating, Sedge, Umbrella",[1]; [19],0
same,"Sedge, Umbrella plant response rating",[1]; [20],0
same,"Plant response rating, Flood, Rice",[2]; [17],0
same,"Plant response rating, Rice",[2]; [18],0
same,"Plant response rating, Rice",[2]; [19],0
same,Rice plant response rating,[2]; [20],0
same,"Plant response rating, Flood, Ducksalad",[3]; [17],20
same,"Plant response rating, Ducksalad",[3]; [18],0
same,"Plant response rating, Ducksalad",[3]; [19],0
same,Ducksalad plant response rating,[3]; [20],0
same,"Plant response rating, Flood, Barnyardgrass",[4]; [17],30
same,"Plant response rating, Barnyardgrass",[4]; [18],0
same,"Plant response rating, Barnyardgrass",[4]; [19],20
same,Barnyardgrass plant response rating,[4]; [20],0
same,"Plant response rating, Bermudagrass",[5]; [21],85
same,"Plant response rating, Bermudagrass",[5]; [22],98
same,Bermudagrass plant response rating (0 to 100 scale),[5]; [23],98
same,"Plant response rating, Bermudagrass",[5]; [24],98
same,"Plant response rating, Bermudagrass",[5]; [25],90
same,"Plant response rating, Bermudagrass",[5]; [26],98
same,"Plant response rating, Bermudagrass",[5]; [27],100
same,"Plant response rating, Bermudagrass",[5]; [28],100
same,"Plant response rating, Corn",[6]; [21],0
same,"Plant response rating, Corn",[6]; [22],5
same,Corn plant response rating (0 to 100 scale),[6]; [23],10
same,"Plant response rating, Corn",[6]; [24],25
same,"Plant response rating, Corn",[6]; [25],0
same,"Plant response rating, Corn",[6]; [26],0
same,"Plant response rating, Corn",[6]; [27],0
same,"Plant response rating, Corn",[6]; [28],0
same,"Plant response rating, Johnsongrass",[7]; [21],75
same,"Plant response rating, Johnsongrass",[7]; [22],98
same,Johnsongrass plant response rating (0 to 100 scale),[7]; [23],100
same,"Plant response rating, Johnsongrass",[7]; [24],100
same,"Plant response rating, Johnsongrass",[7]; [25],0
same,"Plant response rating, Johnsongrass",[7]; [26],5
same,"Plant response rating, Johnsongrass",[7]; [27],45
same,"Plant response rating, Johnsongrass",[7]; [28],85
same,"Plant response rating, Cocklebur",[8]; [21],0
same,"Plant response rating, Cocklebur",[8]; [22],0
same,Cocklebur plant response rating (0 to 100 scale),[8]; [23],0
same,"Plant response rating, Cocklebur",[8]; [24],20
same,"Plant response rating, Cocklebur",[8]; [25],0
same,"Plant response rating, Cocklebur",[8]; [26],0
same,"Plant response rating, Cocklebur",[8]; [27],0
same,"Plant response rating, Cocklebur",[8]; [28],10
same,"Plant response rating, Ragweed",[9]; [21],75
same,"Plant response rating, Ragweed",[9]; [22],90
same,Ragweed plant response rating (0 to 100 scale),[9]; [23],90
same,"Plant response rating, Ragweed",[9]; [24],100
same,"Plant response rating, Ragweed",[9]; [26],65
same,"Plant response rating, Ragweed",[9]; [27],65
same,"Plant response rating, Ragweed",[9]; [28],65
same,"Plant response rating, Pigweed",[10]; [21],95
same,"Plant response rating, Pigweed",[10]; [22],98
same,Pigweed plant response rating (0 to 100 scale),[10]; [23],100
same,"Plant response rating, Pigweed",[10]; [24],100
same,"Plant response rating, Pigweed",[10]; [25],95
same,"Plant response rating, Pigweed",[10]; [26],98
same,"Plant response rating, Pigweed",[10]; [27],100
same,"Plant response rating, Pigweed",[10]; [28],100
same,"Plant response rating, Foxtail, Green",[11]; [21],75
same,"Plant response rating, Foxtail, Green",[11]; [22],95
same,"Foxtail, Green plant response rating (0 to 100 scale)",[11]; [23],98
same,"Plant response rating, Foxtail, Green",[11]; [24],100
same,"Plant response rating, Foxtail, Green",[11]; [27],70
same,"Plant response rating, Foxtail, Green",[11]; [28],85
same,"Plant response rating, Foxtail, Giant",[12]; [21],80
same,"Plant response rating, Foxtail, Giant",[12]; [22],95
same,"Foxtail, Giant plant response rating (0 to 100 scale)",[12]; [23],98
same,"Plant response rating, Foxtail, Giant",[12]; [24],98
same,"Plant response rating, Foxtail, Giant",[12]; [25],0
same,"Plant response rating, Foxtail, Giant",[12]; [26],5
same,"Plant response rating, Foxtail, Giant",[12]; [27],75
same,"Plant response rating, Foxtail, Giant",[12]; [28],90
same,"Plant response rating, Soybean",[13]; [21],45
same,"Plant response rating, Soybean",[13]; [22],80
same,Soybean plant response rating (0 to 100 scale),[13]; [23],90
same,"Plant response rating, Soybean",[13]; [24],98
same,"Plant response rating, Lambsquarters",[14]; [21],100
same,"Plant response rating, Lambsquarters",[14]; [22],100
same,Lambsquarters plant response rating (0 to 100 scale),[14]; [23],100
same,"Plant response rating, Lambsquarters",[14]; [24],100
same,"Plant response rating, Lambsquarters",[14]; [25],95
same,"Plant response rating, Lambsquarters",[14]; [26],98
same,"Plant response rating, Lambsquarters",[14]; [27],100
same,"Plant response rating, Lambsquarters",[14]; [28],100
same,"Plant response rating, Kochia",[15]; [21],60
same,"Plant response rating, Kochia",[15]; [22],60
same,Kochia plant response rating (0 to 100 scale),[15]; [23],70
same,"Plant response rating, Kochia",[15]; [24],80
same,"Plant response rating, Kochia",[15]; [26],0
same,"Plant response rating, Kochia",[15]; [27],20
same,"Plant response rating, Kochia",[15]; [28],45
same,"Plant response rating, Oat, Wild",[16]; [21],50
same,"Plant response rating, Oat, Wild",[16]; [22],60
same,"Oat, Wild plant response rating (0 to 100 scale)",[16]; [23],80
same,"Plant response rating, Oat, Wild",[16]; [24],85
same,"Plant response rating, Oat, Wild",[16]; [25],0
same,"Plant response rating, Oat, Wild",[16]; [26],0
same,"Plant response rating, Oat, Wild",[16]; [27],0
same,"Plant response rating, Oat, Wild",[16]; [28],0
